Laboratory results: patent US20080280824A1, “COMPOSITIONS AND METHODS FOR TREATMENT OF CANCER OR NEURODEGENERATIVE DISEASE WITH PEPTIDE BASED MICROTUBULE STABILIZERS OR INHIBITORS” (University of Washington, priority 2007, published 2008)

B1: αAβ8: human αB crystallin mutant, β8 sequence 131LTITSSLS138 replaced with homologous β8 sequence of human αA crystallin (protein)
chain: MDIAIHHPWIRRPFFPFHSPSRLFDQFFGEHLLESDLFPTSTSLSPFYLRPPSFLRAPSWFDTGLSEMRLEKDRFSVNLDVKHFSPEELKVKVLGDVIEVHGKHEERQDEHGFISREFHRKYRIPADVDPSALSCSLSSDGVLTVNGPRKQVSGPERTIPITREEKPAVTAAPKK

How the values were obtained:
[1] = test system: citrate synthase; assay: In vitro chaperone assay, thermal aggregation of citrate synthase; assay type: biochemical
[2] = test system: alcohol dehydrogenase; assay: In vitro chaperone assay, thermal aggregation of alcohol dehydrogenase; assay type: biochemical
[3] = test system: βH crystallin; assay: In vitro chaperone assay, thermal aggregation of βH crystallin; assay type: biochemical
[4] = test system: pre-formed microtubules; assay: Microtubule disassembly assay (DAPI fluorescence); assay type: biochemical, Bovine
Description: Microtubule disassembly assays. The effect of αB crystallin peptides and mutants on the in vitro disassembly of microtubules into soluble tubulin was evaluated using the Microtubule Stabilization/Destabilization Assay kit described above (Cytoskeleton; Denver, Colo.) as described previously^36. 34 μM pre-formed microtubules were incubated with the αB crystallin peptides (170 μM) or wt and mutant αB crystallins (6.8 μM and 34 μM) at 23° C. for 20 minutes. Incubation of microtubules at 23° C. results in the spontaneous disassembly of microtubules. The decrease in DAPI fluorescence at λ=460 nm was measured continuously for 20 minutes by exciting the samples at λ=355 nm using a Perkin Elmer Victor^3 V fluorescence plate reader.

[5] = test system: Bovine brain tubulin; assay: Tubulin thermal aggregation assay (absorbance at 340 nm); assay type: biochemical
Description: Tubulin aggregation assays. The effect of αB crystallin peptides and mutants on the thermal aggregation of tubulin was evaluated using ultra-violet spectroscopy. Bovine brain tubulin was dissolved to 200 μM in 80 mM PIPES, 2 mM MgCl2, 0.5 mM EGTA, pH 6.9. 4.25 μl of 0.08, 0.4, or 2 mM test peptide or protein was diluted into 40 μl of 80 mM PIPES, 2 mM MgCl2, 0.5 mM EGTA, pH 6.9. 8.5 μl of the 200 μM tubulin was added to each sample. Samples were heated at 52° C. and the absorbance at λ=340 nm was measured continuously for 60 minutes using a Pharmacia Biotech Ultrospec 3000. GTP and glycerol were not present in the samples because they induce the assembly of microtubules.

[6] = target: T1, Bovine brain tubulin (Bos taurus, UniProt P81947+Q6B856); assay: Microtubule assembly assay (DAPI fluorescence, Microtubule Stabilization/Destabilization Assay kit); assay type: biochemical
T1 construct: Bovine brain tubulin was dissolved to 200 μM; purchased Cytoskeleton; Denver, Colo; host or cells: bovine brain
Description: Microtubule assembly assays. The effect of selected αB crystallin peptides on the in vitro assembly of tubulin into microtubules was evaluated using the Microtubule Stabilization/Destabilization Assay kit (Cytoskeleton; Denver, Colo.) as described previously. Bonne et al., J Biol Chem 260:2819-25, 1985. Bovine brain tubulin was dissolved to 200 μM in 80 mM PIPES, 2 mM MgCl2, 0.5 mM EGTA, 10 μM DAPI, 1 mM GTP pH 6.9. 8.5 μl of the tubulin was mixed with 40 μl of 80 mM PIPES, 2 mM MgCl2, 0.5 mM EGTA, 7.4 μM DAPI, 16% Glycerol, 1.1 mM GTP pH 6.9 and 4.3 μl of 2 mM peptide in 2.5% DMSO, 2 mM Paclitaxel (polymerization promoter) in 100% DMSO, 15 mM CaCl2 (polymerization inhibitor) in water, or 2.5% DMSO only. Microtubule assembly was monitored by measuring the fluorescence of DAPI, a molecule whose emission fluorescence at λ=460 is enhanced 8-fold when it is incorporated into assembled microtubules. Bonne et al., J Biol Chem 260:2819-25, 1985. Fluorescence of samples were continuously read on a Perkin Elmer Victor^3 V fluorescence plate reader (Excitation λ=355 nm, Emission λ=460 nm) at 37° C. for 45 minutes.
The effect of wt and three mutant αB crystallins, Δ41-58, αAβ8, and Δ155-165 on the in vitro assembly of tubulin into microtubules was evaluated using the Microtubule Stabilization/Destabilization Assay kit described above (Cytoskeleton; Denver, Colo.). Bovine brain tubulin was dissolved to 200 μM in 80 mM PIPES, 2 mM MgCl2, 0.5 mM EGTA, 10 μM DAPI, 1 mM GTP pH 6.9. 8.5 μl of the tubulin was mixed with 40 μl of 80 mM PIPES, 2 mM MgCl2, 0.5 mM EGTA, 7.4 μM DAPI, 16% Glycerol, 1.1 mM GTP pH 6.9 and 4.3 μl of 80 μM protein in 20 mM Tris-Cl, pH8.0 or Tris-Cl buffer only. Fluorescence of samples were continuously read on a Perkin Elmer Victor^3 V fluorescence plate reader (Excitation λ=355 nm, Emission λ=460 nm) at 37° C. for 45 minutes.

T1 sequence (P81947 whole entry): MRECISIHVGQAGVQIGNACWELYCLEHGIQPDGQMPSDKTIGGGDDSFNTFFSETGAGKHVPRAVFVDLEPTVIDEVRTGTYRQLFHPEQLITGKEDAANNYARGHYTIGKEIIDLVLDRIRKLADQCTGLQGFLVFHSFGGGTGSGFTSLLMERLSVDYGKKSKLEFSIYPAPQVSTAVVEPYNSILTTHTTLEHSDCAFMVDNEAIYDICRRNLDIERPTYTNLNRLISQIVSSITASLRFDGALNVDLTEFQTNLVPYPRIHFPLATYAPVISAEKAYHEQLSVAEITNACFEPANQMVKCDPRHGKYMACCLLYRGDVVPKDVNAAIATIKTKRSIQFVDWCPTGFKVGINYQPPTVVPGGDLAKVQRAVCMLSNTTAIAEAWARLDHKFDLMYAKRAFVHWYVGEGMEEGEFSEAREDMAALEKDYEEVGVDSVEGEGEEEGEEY
T1 sequence (Q6B856 whole entry): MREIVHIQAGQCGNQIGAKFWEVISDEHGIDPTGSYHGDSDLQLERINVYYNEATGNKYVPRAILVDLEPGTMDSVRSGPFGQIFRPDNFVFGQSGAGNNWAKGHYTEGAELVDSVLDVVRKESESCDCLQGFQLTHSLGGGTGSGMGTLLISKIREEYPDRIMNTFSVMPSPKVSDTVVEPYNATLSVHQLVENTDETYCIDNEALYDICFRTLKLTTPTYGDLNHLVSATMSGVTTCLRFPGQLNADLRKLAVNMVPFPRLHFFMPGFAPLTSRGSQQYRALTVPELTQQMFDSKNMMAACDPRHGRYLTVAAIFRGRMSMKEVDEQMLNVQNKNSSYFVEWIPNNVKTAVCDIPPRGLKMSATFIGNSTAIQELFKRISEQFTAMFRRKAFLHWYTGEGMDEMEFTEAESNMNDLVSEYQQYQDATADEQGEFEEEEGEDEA

Row | Molecule | effect on thermal aggregation of citrate synthase [1] | effect on thermal aggregation of alcohol dehydrogenase [2] | effect on thermal aggregation of βH crystallin [3] | microtubule disassembly relative to wt αB crystallin ([4]; mutant αB crystallin, FIG. 4) | effect on microtubule disassembly (words), vs absence of αB crystallin ([4]; wt or mutant αB crystallin (6.8 μM and 34 μM), 34 μM microtubules, 23° C., 20 minutes) | tubulin aggregation relative to wt αB crystallin ([5]; mutant αB crystallin, FIG. 4) | effect on tubulin aggregation, vs absence of αB crystallin ([5]; wt or mutant αB crystallin protein, 52° C., 60 minutes) | microtubule assembly relative to wt αB crystallin ([6]; mutant αB crystallin, FIG. 4) | effect on microtubule assembly, vs absence of αB crystallin ([6]; wt or mutant αB crystallin protein, tubulin alone normalized to 1.0)
1 | LTITSSLSDGV | inhibited | inhibited | inhibited |  |  |  |  |  | 
2 | RTIPITRE | inhibited | inhibited | inhibited |  |  |  |  |  | 
3 | B1 |  |  |  | decreased | completely inhibited | unchanged | decreased | increased | increased
